Assay results: PubChem BioAssay (NCI)
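Method: 48-hour compound exposure of cells in 96-well plates, five concentrations, linear interpolation of endpoints. Abbreviation: GI50, concentration required for 50% inhibition of growth. TGI: total growth inhibition.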

Legend:
Test in all cases: NCI-60 cell line screen, 48 h
[1] = test system: 786-0 renal
[2] = test system: A498 renal
[3] = test system: A549 NSCLC
[4] = test system: ACHN renal
[5] = test system: BT-549 breast
[6] = test system: CAKI-1 renal
[7] = test system: CCRF-CEM leukemia
[8] = test system: COLO 205 colon
[9] = test system: DU-145 prostate
[10] = test system: HCC-2998 colon
[11] = test system: HCT-116 colon
[12] = test system: HCT-15 colon
[13] = test system: HOP-92 NSCLC
[14] = test system: HS 578T breast
[15] = test system: HT29 colon
[16] = test system: K-562 leukemia
[17] = test system: KM12 colon
[18] = test system: LOX IMVI melanoma
[19] = test system: M14 melanoma
[20] = test system: MCF7 breast
[21] = test system: MDA-MB-231 breast
[22] = test system: MDA-MB-435
[23] = test system: MOLT-4 leukemia
[24] = test system: NCI-H226 lung
[25] = test system: NCI-H23 lung
[26] = test system: NCI-H460 lung
[27] = test system: NCI-H522 lung
[28] = test system: NCI/ADR-RES ovarian
[29] = test system: OVCAR-3 ovarian
[30] = test system: OVCAR-4 ovarian
[31] = test system: OVCAR-5 ovarian
[32] = test system: OVCAR-8 ovarian
[33] = test system: PC-3 prostate
[34] = test system: SF-268 CNS
[35] = test system: SK-MEL-2 melanoma
[36] = test system: SK-MEL-28 melanoma
[37] = test system: SK-OV-3 ovarian
[38] = test system: SN12C renal
[39] = test system: SNB-19 CNS
[40] = test system: SNB-75 CNS
[41] = test system: SW-620 colon
[42] = test system: T-47D breast
[43] = test system: TK-10 renal
[44] = test system: U251 CNS
[45] = test system: UACC-257 melanoma
[46] = test system: UO-31 renal
[47] = test system: EKVX NSCLC
[48] = test system: HL-60(TB) leukemia
[49] = test system: HOP-62 NSCLC
[50] = test system: IGROV1 ovarian
[51] = test system: MALME-3M melanoma
[52] = test system: RPMI-8226 leukemia
[53] = test system: RXF 393 renal
[54] = test system: SF-295 CNS
[55] = test system: SF-539 CNS
[56] = test system: SK-MEL-5 melanoma
[57] = test system: UACC-62 melanoma

COc1cc(/C=C/c2cc(/C=C/c3ccc(O)c(OC)c3)n(C(N)=O)n2)ccc1O
GI50 [1]: 372 nM
TGI [1]: 1370 nM
GI50 [2]: 1120 nM
TGI [2]: 3480 nM
GI50 [3]: 491 nM
TGI [3]: 11300 nM
GI50 [4]: 342 nM
TGI [4]: 10200 nM
GI50 [5]: 395 nM
TGI [5]: 1580 nM
GI50 [6]: 368 nM
TGI [6]: 10000 nM
GI50 [7]: 295 nM
TGI [7]: > 100000 nM
GI50 [8]: 2360 nM
TGI [8]: 6030 nM
GI50 [9]: 482 nM
TGI [9]: 1630 nM
GI50 [10]: 1560 nM
TGI [10]: 11200 nM
GI50 [11]: 314 nM
TGI [11]: 1110 nM
GI50 [12]: 312 nM
TGI [12]: 2010 nM
GI50 [13]: 861 nM
TGI [13]: 4400 nM
GI50 [14]: 259 nM
TGI [14]: 2520 nM
GI50 [15]: 2180 nM
TGI [15]: 5280 nM
GI50 [16]: 350 nM
TGI [16]: > 100000 nM
GI50 [17]: 351 nM
TGI [17]: 1860 nM
GI50 [18]: 493 nM
TGI [18]: 2750 nM
GI50 [19]: 283 nM
TGI [19]: 1030 nM
GI50 [20]: 314 nM
TGI [20]: 1450 nM
GI50 [21]: 655 nM
TGI [21]: 12800 nM
GI50 [22]: 102 nM
TGI [22]: 346 nM
GI50 [23]: 365 nM
TGI [23]: > 100000 nM
GI50 [24]: 1380 nM
TGI [24]: 4400 nM
GI50 [25]: 647 nM
TGI [25]: 3530 nM
GI50 [26]: 318 nM
TGI [26]: 1300 nM
GI50 [27]: 252 nM
TGI [27]: 964 nM
GI50 [28]: 435 nM
TGI [28]: 4440 nM
GI50 [29]: 427 nM
TGI [29]: 2190 nM
GI50 [30]: 570 nM
TGI [30]: 5030 nM
GI50 [31]: 1760 nM
TGI [31]: > 100000 nM
GI50 [32]: 543 nM
TGI [32]: 22800 nM
GI50 [33]: 439 nM
TGI [33]: 2310 nM
GI50 [34]: 439 nM
TGI [34]: 4830 nM
GI50 [35]: 400 nM
TGI [35]: 1130 nM
GI50 [36]: 609 nM
TGI [36]: 3260 nM
GI50 [37]: 392 nM
TGI [37]: 1930 nM
GI50 [38]: 585 nM
TGI [38]: 5940 nM
GI50 [39]: 691 nM
GI50 [40]: 311 nM
TGI [40]: 1260 nM
GI50 [41]: 398 nM
TGI [41]: 1820 nM
GI50 [42]: 507 nM
TGI [42]: 3680 nM
GI50 [43]: 1300 nM
TGI [43]: 4730 nM
GI50 [44]: 526 nM
TGI [44]: 10500 nM
GI50 [45]: 1530 nM
TGI [45]: 9030 nM
GI50 [46]: 370 nM
TGI [46]: 1690 nM

NC(N)=Nc1ccc(CC(N)C(=O)NCC(=O)C(CC(=O)O)c2ncc(NC(=O)C(F)(F)F)o2)cc1 (centres undefined)
TGI [1]: > 25000 nM
TGI [2]: > 25000 nM
TGI [3]: > 25000 nM
TGI [4]: > 25000 nM
TGI [5]: > 25000 nM
TGI [6]: > 25000 nM
TGI [7]: > 25000 nM
TGI [8]: > 25000 nM
TGI [9]: > 25000 nM
TGI [47]: > 25000 nM
TGI [10]: > 25000 nM
TGI [11]: > 25000 nM
TGI [12]: > 25000 nM
TGI [48]: > 25000 nM
TGI [49]: > 25000 nM
TGI [14]: > 25000 nM
TGI [15]: > 25000 nM
TGI [50]: > 25000 nM
TGI [17]: > 25000 nM
TGI [18]: > 25000 nM
TGI [19]: > 25000 nM
TGI [51]: > 25000 nM
TGI [20]: > 25000 nM
TGI [21]: > 25000 nM
TGI [22]: > 25000 nM
TGI [24]: > 25000 nM
TGI [25]: > 25000 nM
TGI [26]: > 25000 nM
TGI [27]: > 25000 nM
TGI [28]: > 25000 nM
TGI [29]: > 25000 nM
TGI [30]: > 25000 nM
TGI [31]: > 25000 nM
TGI [32]: > 25000 nM
TGI [33]: > 25000 nM
TGI [52]: > 25000 nM
TGI [53]: > 25000 nM
TGI [34]: > 25000 nM
TGI [54]: > 25000 nM
TGI [55]: > 25000 nM
TGI [35]: > 25000 nM
TGI [36]: > 25000 nM
TGI [56]: > 25000 nM
TGI [37]: > 25000 nM
TGI [38]: > 25000 nM
TGI [40]: > 25000 nM
TGI [41]: > 25000 nM
TGI [42]: > 25000 nM
TGI [43]: > 25000 nM
TGI [44]: > 25000 nM
TGI [45]: > 25000 nM
TGI [57]: > 25000 nM
TGI [46]: > 25000 nM
